Measured values as given in patent publication US20260103474A1, “NOVEL COMPOUNDS FOR THE DIAGNOSIS OF TDP-43 PROTEINOPATHIES” (AC IMMUNE SA, priority 2022, published 2026).

Tests used:
TDP-43 aggregates = TDP-43 aggregates (Homo sapiens, UniProt Q13148); experiment: Classical autoradiography in brain sections from patients with FTD; format: binding; details: for Displacement on FTLD-TDP type A and B compared to non-demented control / Specific binding in FTLD-TDP type A compared to control: classical autoradiography; for cARG displacement on FTLD-TDP Type A case / cARG displacement on FTLD-TDP Type B case / cARG displacement on non-demented control: total binding divided by non-specific binding, grey matter, self-block with cold compound; for Specific binding in FTLD-TDP type A compared to control: one-way ANOVA with Tukey's correction
Protocol: (§1) All tissues were collected from donors for or from whom a written informed consent for a brain autopsy and the use of the material and clinical information for research purposes had been obtained by the respective brain banks. All samples were anonymized and coded. Frozen brain tissue blocks with confirmed TDP-43 pathology upon autopsy were processed using a cryotome to generate sections of 10 μm in thickness and mounted on glass slides. Sections were kept at −80° C. until use.
Brain sections were fixed for 15 minutes at 4° C. with 4% formaldehyde on ice and washed three times for eight minutes with 1×PBS at RT. Sections were blocked in assay buffer for 30 minutes (50 mM Tris-HCl, 0.9% NaCl+0.1% BSA). Cold test compound (Compound 1, Compound 8 or Compound 17) was diluted in assay buffer to 4 μM and applied on half of the sections for 40 minutes at RT to determine non-specific binding. The remaining half of the sections were only incubated with assay buffer (total binding). Following this incubation, an equal volume of the corresponding tritiated compound (i.e. [^3H]-Compound 1, [^3H]-Compound 8 or [^3H]-Compound 17, respectively), diluted to 20 nM (for [^3H]-Compound 1 and [^3H]-Compound 8) or 10 nM ([^3H]-Compound 17) or increasing concentration from 0.1 to 200 nM (for [^3H]-Compound 1 and [^3H]-Compound 17), was added on sections and incubated for 2 hours at RT and then washed as follows: once in ice-cold 50 mM Tris-HCl pH 7.4 buffer for one minute, twice in ice-cold PBS for one minute, once in ice-cold 50 mM Tris-HCl pH 7.4 buffer for one minute and finally rinsed briefly in ice-cold distilled water.
Sections were subsequently dried under a stream of air and mounted with a copper-based adhesive strip. Bound radioactivity was quantified by exposing the slides in a real-time autoradiography system (Beaquant™ AI4R) for 2 hours, with measurement settings configured for tritium. Beavacq software (AI4R) was used to acquire the image which was subsequently quantified using Beamage image analysis software (AI4R). Specific binding (non-specific binding subtracted from total) and displacement (total binding divided by non-specific) were calculated. Bar graphs were generated using GraphPad Prism. For Kd determination on brain sections, the specific binding data were fitted with a non-linear regression analysis using a one-site specific binding model in GraphPad Prism.

[1] = system: Abeta and Tau aggregates in AD tissue; experiment: Classical autoradiography on Abeta- and Tau-rich AD brain tissue sections; format: binding, human; details: tritiated compound 10 nM; alone or in self-competition
Protocol: as §1, with “Abeta and Tau” for “TDP-43”
Brain sections were fixed for 15 minutes at 4° C. with 4% formaldehyde on ice and washed three times for eight minutes with 1×PBS at RT. Sections were blocked in assay buffer for 30 minutes (50 mM Tris-HCl, 0.9% NaCl+0.1% BSA). Cold test compound (Compound 1) was diluted in assay buffer to 4 μM and applied on half of the sections for 40 minutes at RT to determine non-specific binding. The remaining half of the sections were only incubated with assay buffer (total binding). […]
Sections were subsequently dried under a stream of air and mounted with a copper-based adhesive strip. Bound radioactivity was quantified by exposing the slides in a real-time autoradiography system (Beaquant™ AI4R) for 2 hours with measurement settings configured for tritium. Beavacq software (AI4R) was used to acquire the image which was subsequently quantified using Beamage image analysis software (AI4R).

[2] = biological target: human FTD Type A sarkosyl-insoluble brain extracts (Homo sapiens, UniProt Q13148); experiment: Kd determination by micro-radiobinding assay on FTD Type A extracts; format: binding; details: tritiated compound 1.29 to 300 nM
Protocol: Human brain extracts were prepared as described in Laferriere et al., 2019, Nature Neurosc. A sample of brain tissue (frontal or temporal cortex) was homogenized at 1:4 (w/v) ratio in the homogenization-solubilization (HS) buffer at 4° C. using tissue homogenizer (Precellys) with CKmix homogenization tubes. The following sequence was used for homogenization: 3 cycles of 30 seconds at 5000 rpm (with 15 seconds pause between each cycle). Homogenized samples were aliquoted and stored at −80° C. in 1.5 mL low protein binding tubes.
Brain homogenates were thawed on ice and resuspended in HS buffer to obtain a final concentration of 2% sarkosyl, 1 unit/μL Benzonase and 1 mM MgCl2. The samples were then incubated at 37° C. under constant shaking at 600 rpm on a thermomixer for 45 minutes (min). The supernatants were collected in a new tube (sarkosyl-soluble fraction, S1). The pellet was resuspended in 1000 μL of myelin floatation buffer and centrifuged at 20,000 g for 60 min at 4° C. The supernatant was carefully removed to remove all the floating lipids. This step was repeated if all the lipids could not be removed in a single step. The pellet was subsequently washed with Phosphate-Buffered Saline (PBS) and centrifuged for 30 min at 20,000 g at 4° C. The final pellet was resuspended in 200 μL PBS and stored at −80° C. (sarkosyl-insoluble fraction). The samples were analyzed by immunoblotting in denaturing conditions.
Human FTD sarkosyl-insoluble brain extracts were spotted onto microarray slides. The slides were incubated with [^3H]-Compounds 1, 7, 8, 9, 15, 16 and 17 in a range of concentrations, varying from 1.29 to 300 nM. After incubation, slides were washed and scanned by a real-time autoradiography system (BeaQuant, ai4R). Quantification of the signal was performed by using the Beamage image analysis software (ai4R). Non-specific signal was determined with an excess of non-radiolabeled compound 1, 7, 8, 9, 15, 16 and 17 (1 μM), respectively, and specific binding was calculated by subtracting the non-specific signal from the total signal.
The Kd (Dissociation constant) and R^2 (parameter ranging between 0.0 and 1.0 that quantifies the goodness of fit, and the best curve fit obtained with value of 1.0) were obtained by fitting the specific binding data with non-linear regression analysis, using a one-site specific binding model in GraphPad Prism8.

TDP-43 aggregates, sequence (Q13148 whole entry): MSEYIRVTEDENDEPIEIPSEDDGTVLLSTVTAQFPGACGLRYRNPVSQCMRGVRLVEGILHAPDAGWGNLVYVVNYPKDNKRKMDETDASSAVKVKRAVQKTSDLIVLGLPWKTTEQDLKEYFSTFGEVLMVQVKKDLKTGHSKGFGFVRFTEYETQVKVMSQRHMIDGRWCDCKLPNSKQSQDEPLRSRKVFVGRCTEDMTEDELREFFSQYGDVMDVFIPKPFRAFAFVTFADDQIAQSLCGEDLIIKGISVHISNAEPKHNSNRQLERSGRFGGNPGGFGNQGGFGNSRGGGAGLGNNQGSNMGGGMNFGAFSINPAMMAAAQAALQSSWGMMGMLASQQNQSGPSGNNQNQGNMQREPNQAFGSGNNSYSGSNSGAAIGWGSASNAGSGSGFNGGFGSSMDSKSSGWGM
human FTD Type A sarkosyl-insoluble brain extracts, sequence (Q13148 263-414 limits assumed): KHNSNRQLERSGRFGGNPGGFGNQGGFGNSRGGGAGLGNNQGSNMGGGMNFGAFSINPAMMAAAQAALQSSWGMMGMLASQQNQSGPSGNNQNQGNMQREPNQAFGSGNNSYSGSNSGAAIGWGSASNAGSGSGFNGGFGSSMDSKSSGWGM

Row | Kd [2] | Specific binding in FTLD-TDP type A compared to control (TDP-43 aggregates) | SMILES | Displacement on FTLD-TDP type A and B compared to non-demented control (TDP-43 aggregates) | cARG displacement on FTLD-TDP Type A case (TDP-43 aggregates) | cARG displacement on FTLD-TDP Type B case (TDP-43 aggregates) | cARG displacement on non-demented control (TDP-43 aggregates) | Classical autoradiography signal on AD tissue with abundant Abeta and Tau pathology [1]
1 |  |  | O=C1c2sc(-c3ccc(N4CCC(CO)CC4)nc3F)nc2CCN1c1cccnc1 [Compound 17, 2-(2-fluoro-6-(4-(hydroxymethyl)piperidin-1-yl)pyridin-3-yl)-5-(pyridin-3-yl)-6,7-dihydrothiazolo[5,4-c]pyridin-4(5H)-one] | increased displacement | 2.9 | 2.6 | 1.7 | no signal on the tissue
2 | 0.025 ± 0.006 µM | significantly higher specific binding | [3H]C([3H])(O)C1CCN(c2ccc(-c3nc4c(s3)C(=O)N(c3cccnc3)CC4)c(F)n2)CC1 [[^3H]-Compound 17, 2-(2-fluoro-6-(4-(hydroxymethyl-t2)piperidin-1-yl)pyridin-3-yl)-5-(pyridin-3-yl)-6,7-dihydrothiazolo[5,4-c]pyridin-4(5H)-one] |  |  |  |  | 
3 | 0.069 ± 0.021 µM | significantly higher specific binding | [3H]c1cncc(N2CCc3nc(-c4cc([3H])c(N5CC[C@@H](F)C5)nc4F)sc3C2=O)c1 [[^3H]-Compound 1, tritiated 2-[2-fluoro-6-[(3R)-3-fluoropyrrolidin-1-yl]-3-pyridyl]-5-(3-pyridyl)-6,7-dihydrothiazolo[5,4-c]pyridin-4-one] |  |  |  |  | 
4 |  |  | O=C1c2sc(-c3ccc(N4CC[C@@H](F)C4)nc3F)nc2CCN1c1cccnc1 [Compound 1, 2-[2-fluoro-6-[(3R)-3-fluoropyrrolidin-1-yl]-3-pyridyl]-5-(3-pyridyl)-6,7-dihydrothiazolo[5,4-c]pyridin-4-one] | increased displacement | 3.3 | 3.2 | 1.9 | no signal on the tissue
